Assays:
Vero E6 [1] = assay: drug sensitivity score (DSS) for viability; higher = more toxic; extreme values may be limits of the assay; conditions: 72 h
Caco-2 [2] = assay: as above; conditions: 72 h
U2OS [3] = assay: as above; conditions: 72 h
HepG2 [4] = assay: as above; conditions: 72 h
Calu-3 [5] = assay: as above; conditions: 72 h
Vero E6 [6] = assay: cell viability relative to DMSO; higher = less toxic; conditions: 72 h
Caco-2 [7] = assay: as above; conditions: 72 h
U2OS [8] = assay: as above; conditions: 72 h
HepG2 [9] = assay: as above; conditions: 72 h
Calu-3 [10] = assay: as above; conditions: 72 h
A549-ACE2 [11] = assay: drug-induced phospholipidosis relative to tamoxifen; higher = more phospholipidosis
[12] = tested on: A549-ACE2 infected with SARS-CoV-2; assay: morphology score (similarity to uninfected cells); higher = more like uninfected cells; conditions: 24 h
Vero E6 [13] = assay: relative viability EC50 (midpoint between 100% and the lowest measured viability); higher = less toxic; conditions: 72 h
U2OS [14] = assay: as above; conditions: 72 h
Calu-3 [15] = assay: as above; conditions: 72 h
A549-ACE2 [16] = assay: phospholipidosis EC50; higher = less potent phospholipidosis inducer
[17] = tested on: A549-ACE2 infected with SARS-CoV-2; assay: cell count relative to DMSO; higher = less toxic; conditions: 24 h
[18] = tested on: A549-ACE2 infected with SARS-CoV-2; assay: SARS-CoV-2 infection rate relative to DMSO; higher = more infection; conditions: 24 h
Caco-2 [19] = assay: relative viability EC50 (midpoint between 100% and the lowest measured viability); higher = less toxic; conditions: 72 h
HepG2 [20] = assay: as above; conditions: 72 h

CC/C(=C(\c1ccc(O)cc1)c1ccc(OCCN(C)C)cc1)c1ccccc1 [afimoxifene]
Conditions	drug sensitivity score	relative viability EC50 [µM]
Caco-2 [2]	2.5	–
Calu-3 [5]	3.7	–
Calu-3 [15]	–	3.52
HepG2 [4]	1.8	–
U2OS [3]	1.2	–
U2OS [14]	–	> 10
Vero E6 [1]	0.3	–
Vero E6 [13]	–	> 10

Conditions	SARS-CoV-2 infection rate [%]	cell count [%]	cell viability [%]	morphology score	phospholipidosis EC50 [µM]
A549-ACE2 [16], 24 h	–	–	–	–	1.78
A549-ACE2 [16], 48 h	–	–	–	–	2.82
A549-ACE2 [16], 72 h	–	–	–	–	3.95
Caco-2 [7], 1 nM	–	–	93	–	–
Caco-2 [7], 10 nM	–	–	91.2	–	–
Caco-2 [7], 100 nM	–	–	95.5	–	–
Caco-2 [7], 1000 nM	–	–	94	–	–
Caco-2 [7], 10000 nM	–	–	66.6	–	–
Calu-3 [10], 1 nM	–	–	91.7	–	–
Calu-3 [10], 10 nM	–	–	103	–	–
Calu-3 [10], 100 nM	–	–	102	–	–
Calu-3 [10], 1000 nM	–	–	105	–	–
Calu-3 [10], 10000 nM	–	–	25.2	–	–
HepG2 [9], 1 nM	–	–	94.6	–	–
HepG2 [9], 10 nM	–	–	111	–	–
HepG2 [9], 100 nM	–	–	90.7	–	–
HepG2 [9], 1000 nM	–	–	112	–	–
HepG2 [9], 10000 nM	–	–	54.3	–	–
U2OS [8], 1 nM	–	–	96.8	–	–
U2OS [8], 10 nM	–	–	94.8	–	–
U2OS [8], 100 nM	–	–	102	–	–
U2OS [8], 1000 nM	–	–	97.2	–	–
U2OS [8], 10000 nM	–	–	77.6	–	–
Vero E6 [6], 1 nM	–	–	93.7	–	–
Vero E6 [6], 10 nM	–	–	98.9	–	–
Vero E6 [6], 100 nM	–	–	99.8	–	–
Vero E6 [6], 1000 nM	–	–	104	–	–
Vero E6 [6], 10000 nM	–	–	81.2	–	–
[12], 0.3 µM	–	–	–	-0.03	–
[12], 3 µM	–	–	–	0.75	–
[12], 10 µM	–	–	–	0.83	–
[12], 30 µM	–	–	–	-0.14	–
[17], 0.3 µM	–	99	–	–	–
[17], 3 µM	–	121	–	–	–
[17], 10 µM	–	117	–	–	–
[17], 30 µM	–	81	–	–	–
[18], 0.3 µM	112	–	–	–	–
[18], 3 µM	47	–	–	–	–
[18], 10 µM	13	–	–	–	–
[18], 30 µM	68	–	–	–	–

drug-induced phospholipidosis [%], A549-ACE2 [11]
Conditions	0.3 µM	0.833333 µM	3.33333 µM	6.66667 µM	10 µM	30 µM
24 h	3.39	11.5	51	69.1	81.9	36.9
48 h	3.38	6.29	53.4	74.8	82.8	–
72 h	5.01	4.34	43.1	75.7	88.4	–

CCN(CC)C(=S)S [ditiocarb-sodium-trihydrate]
Conditions	drug sensitivity score	relative viability EC50 [µM]
Caco-2 [2]	6.4	–
Caco-2 [19]	–	2.11
Calu-3 [5]	2.8	–
HepG2 [4]	3	–
HepG2 [20]	–	3.73
U2OS [3]	0.2	–
U2OS [14]	–	> 10
Vero E6 [1]	0	–
Vero E6 [13]	–	> 10

Conditions	SARS-CoV-2 infection rate, [18] [%]	cell count, [17] [%]	cell viability, Caco-2 [7] [%]	cell viability, Calu-3 [10] [%]	cell viability, HepG2 [9] [%]	cell viability, U2OS [8] [%]	cell viability, Vero E6 [6] [%]	morphology score, [12]
1 nM	–	–	94.1	105	97.5	101	92.8	–
10 nM	–	–	97	93.1	97.9	98.9	102	–
100 nM	–	–	89.3	108	100	101	96.3	–
0.3 µM	108	97	–	–	–	–	–	-0.22
1000 nM	–	–	89.2	89	108	101	103	–
3 µM	98	102	–	–	–	–	–	0.08
10000 nM	–	–	16.7	70.2	35.6	85.5	99	–
10 µM	95	107	–	–	–	–	–	0.19
30 µM	62	106	–	–	–	–	–	0.61

drug-induced phospholipidosis [%], A549-ACE2 [11]
Conditions	0.3 µM	0.833333 µM	3.33333 µM	6.66667 µM	10 µM
24 h	0.51	1.07	-2.14	-0.7	-0.24
48 h	2.4	1.02	0.85	0.97	0.53
72 h	3.87	-0.805	0.971	1.39	0.827
